Results from PubChem BioAssay (NCI).
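Assay format: 96-well plates, 48-hour exposure. The concentration for full growth arrest is given as TGI.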

How the values were obtained:
Test in all cases: inhibition of tumour cell growth, NCI panel, 48 h
SK-OV-3 ovarian = test system: SK-OV-3 ovarian
RXF 393 renal = test system: RXF 393 renal
U251 CNS = test system: U251 CNS
T-47D breast = test system: T-47D breast
UACC-62 melanoma = test system: UACC-62 melanoma
HOP-18 NSCLC = test system: HOP-18 NSCLC
SK-MEL-2 melanoma = test system: SK-MEL-2 melanoma
OVCAR-5 ovarian = test system: OVCAR-5 ovarian
SW-620 colon = test system: SW-620 colon
SF-295 CNS = test system: SF-295 CNS
DMS 114 small cell lung = test system: DMS 114 small cell lung
DLD-1 colon = test system: DLD-1 colon
SN12C renal = test system: SN12C renal
CCRF-CEM leukemia = test system: CCRF-CEM leukemia
UACC-257 melanoma = test system: UACC-257 melanoma
LOX IMVI melanoma = test system: LOX IMVI melanoma
A498 renal = test system: A498 renal
M19-MEL melanoma = test system: M19-MEL melanoma
HT29 colon = test system: HT29 colon
SNB-78 CNS = test system: SNB-78 CNS
XF 498 CNS = test system: XF 498 CNS
K-562 leukemia = test system: K-562 leukemia
SF-539 CNS = test system: SF-539 CNS
BT-549 breast = test system: BT-549 breast
LXFL 529 NSCLC = test system: LXFL 529 NSCLC
HCT-116 colon = test system: HCT-116 colon
HL-60(TB) leukemia = test system: HL-60(TB) leukemia
HCC-2998 colon = test system: HCC-2998 colon
DMS 273 small cell lung = test system: DMS 273 small cell lung
SNB-75 CNS = test system: SNB-75 CNS
CAKI-1 renal = test system: CAKI-1 renal
KM12 colon = test system: KM12 colon
SR leukemia = test system: SR leukemia
ACHN renal = test system: ACHN renal
IGROV1 ovarian = test system: IGROV1 ovarian
EKVX NSCLC = test system: EKVX NSCLC
MDA-MB-435 = test system: MDA-MB-435
SNB-19 CNS = test system: SNB-19 CNS
KM20L2 colon = test system: KM20L2 colon
PC-3 prostate = test system: PC-3 prostate
NCI-H226 lung = test system: NCI-H226 lung
A549 NSCLC = test system: A549 NSCLC
HOP-62 NSCLC = test system: HOP-62 NSCLC
SF-268 CNS = test system: SF-268 CNS
MALME-3M melanoma = test system: MALME-3M melanoma
HS 578T breast = test system: HS 578T breast
NCI/ADR-RES ovarian = test system: NCI/ADR-RES ovarian
RPMI-8226 leukemia = test system: RPMI-8226 leukemia
MCF7 breast = test system: MCF7 breast
MOLT-4 leukemia = test system: MOLT-4 leukemia
OVCAR-8 ovarian = test system: OVCAR-8 ovarian
SK-MEL-5 melanoma = test system: SK-MEL-5 melanoma
M14 melanoma = test system: M14 melanoma
HOP-92 NSCLC = test system: HOP-92 NSCLC
UO-31 renal = test system: UO-31 renal
OVCAR-3 ovarian = test system: OVCAR-3 ovarian
NCI-H460 lung = test system: NCI-H460 lung
NCI-H522 lung = test system: NCI-H522 lung
NCI-H23 lung = test system: NCI-H23 lung
786-0 renal = test system: 786-0 renal
HCT-15 colon = test system: HCT-15 colon
TK-10 renal = test system: TK-10 renal
OVCAR-4 ovarian = test system: OVCAR-4 ovarian
SK-MEL-28 melanoma = test system: SK-MEL-28 melanoma
MDA-MB-231 breast = test system: MDA-MB-231 breast
COLO 205 colon = test system: COLO 205 colon

SCc1ccc(-c2ccc(CS)cc2)cc1
TGI (SK-OV-3 ovarian): 33.2 µM
TGI (RXF 393 renal): 32.9 µM
TGI (U251 CNS): 31.1 µM
TGI (T-47D breast): 41.6 µM
TGI (UACC-62 melanoma): 41.2 µM
TGI (HOP-18 NSCLC): 30.9 µM
TGI (SK-MEL-2 melanoma): 41.5 µM
TGI (OVCAR-5 ovarian): 27 µM
TGI (SW-620 colon): 60 µM
TGI (SF-295 CNS): 24.9 µM
TGI (DMS 114 small cell lung): 25.6 µM
TGI (DLD-1 colon): 34.1 µM
TGI (SN12C renal): > 81.2 µM
TGI (CCRF-CEM leukemia): 10.7 µM
TGI (UACC-257 melanoma): 45.2 µM
TGI (LOX IMVI melanoma): 15 µM
TGI (A498 renal): > 64.3 µM
TGI (M19-MEL melanoma): 35.7 µM
TGI (HT29 colon): 69.8 µM
TGI (SNB-78 CNS): 51 µM
TGI (XF 498 CNS): 36.6 µM
TGI (K-562 leukemia): 26.9 µM
TGI (SF-539 CNS): 33.5 µM
TGI (BT-549 breast): 6.47 µM
TGI (LXFL 529 NSCLC): 28.7 µM
TGI (HCT-116 colon): 17.8 µM
TGI (HL-60(TB) leukemia): 12.4 µM
TGI (HCC-2998 colon): 30.6 µM
TGI (DMS 273 small cell lung): 58.4 µM
TGI (SNB-75 CNS): 28.1 µM
TGI (CAKI-1 renal): 18.5 µM
TGI (KM12 colon): 10.1 µM
TGI (SR leukemia): 5.79 µM
TGI (ACHN renal): 43.1 µM
TGI (IGROV1 ovarian): 32.5 µM
TGI (EKVX NSCLC): 54.1 µM
TGI (MDA-MB-435): 22.8 µM
TGI (SNB-19 CNS): 36.4 µM
TGI (KM20L2 colon): 53 µM
TGI (PC-3 prostate): 34 µM
TGI (NCI-H226 lung): 36.9 µM
TGI (A549 NSCLC): 39.6 µM
TGI (HOP-62 NSCLC): 14 µM
TGI (SF-268 CNS): 10.3 µM
TGI (MALME-3M melanoma): 36.1 µM
TGI (HS 578T breast): 22.3 µM
TGI (NCI/ADR-RES ovarian): 32.3 µM
TGI (RPMI-8226 leukemia): 30.6 µM
TGI (MCF7 breast): 29.3 µM
TGI (MOLT-4 leukemia): 6.37 µM
TGI (OVCAR-8 ovarian): 53.7 µM
TGI (SK-MEL-5 melanoma): 31 µM
TGI (M14 melanoma): 29.8 µM
TGI (HOP-92 NSCLC): 40.8 µM
TGI (UO-31 renal): 37.8 µM
TGI (OVCAR-3 ovarian): 32.2 µM
TGI (NCI-H460 lung): 25.1 µM
TGI (NCI-H522 lung): 37.7 µM
TGI (NCI-H23 lung): 31.7 µM
TGI (786-0 renal): 59.5 µM
TGI (HCT-15 colon): 33.3 µM
TGI (TK-10 renal): > 61.3 µM
TGI (OVCAR-4 ovarian): 17.5 µM
TGI (SK-MEL-28 melanoma): 24.3 µM
TGI (MDA-MB-231 breast): 31 µM
TGI (COLO 205 colon): 37.4 µM
